Experimental data reported in patent US7824745B2, “Benzochromene derivatives” (Merck Patent GmbH, priority 2005, dated 2010).

Legend:
[1] = Optical anisotropy Δn (589 nm, 20° C.), host mixture ZLI-4792; assay type: physicochemical; conditions: 5% in ZLI-4792
Description: The host mixture used for determining the applicationally relevant physical parameters is ZLI-4792 from Merck KGaA, Germany. As an exception, the determination of the dielectric anisotropy of dielectrically negative compounds is carried out using ZLI-2857, likewise from Merck KGaA, Germany. The values for the respective compound to be investigated are obtained from the change in the properties, for example the dielectric constants, of the host mixture after addition of the compound to be investigated and extrapolation to 100% of the compound employed. […]
(§1) All concentrations in this application, unless explicitly stated otherwise, are indicated in percent by weight and relate to the corresponding mixture as a whole. All physical properties are and have been determined in accordance with “Merck Liquid Crystals, Physical Properties of Liquid Crystals”, status November 1997, Merck KGaA, Germany, and apply to a temperature of 20° C., unless explicitly stated otherwise. An is determined at 589 nm and Δ∈ at 1 kHz.
The following examples are intended to explain the invention without limiting it. Above and below, percentages are percent by weight. […] V10, V50 and V90 (the threshold voltage, mid-grey voltage and saturation voltage respectively) and V0 (the capacitive threshold voltage) were each determined at 20° C.

[2] = Dielectric anisotropy Δ∈ of the compounds, dissolved in a liquid-crystalline host, capacitance at 1 kHz, extrapolated to 100%; assay type: physicochemical; conditions: extrapolated from 5% solution in ZLI-2857, 20° C.
From the text: In the present application, the term dielectrically positive compounds denotes compounds having a Δ∈ of >1.5, the term dielectrically neutral compounds denotes those in which −1.5≦Δ∈≦1.5, and the term dielectrically negative compounds denotes those having a Δ∈ of <−1.5. The […] of this mixture at 1 kHz in at least one test cell with a layer thickness of about 20 μm having a homeotropic surface alignment and at least one test cell with a layer thickness of about 20 μm having a homogeneous surface alignment. The measurement voltage is typically 0.5 V to 1.0 V, but is always less than the capacitive threshold of the respective liquid-crystal mixture. […]
as §1
The following examples are intended to explain the invention without limiting it. […] V10, V50 and V90 (the threshold voltage, mid-grey voltage and saturation voltage respectively) and V0 (the capacitive threshold voltage) were each determined at 20° C.

In the case of `CCCC1CCc2c(c(=O)oc3cc(OCC)ccc23)C1` (stereo not drawn) [Example 1.1, 3-ethoxy-8-propyl-7,8,9,10-tetrahydrobenzo[c]chromen-6-one], the Δn [1] is reported as 0.1302, the “Δ∈” value [2] is reported as −7.5 and the melting point is reported as 108 °C.
